Assay results reported in PubChem BioAssay AID652101 (NMMLSC, 2013).
Calls of active or inactive are those of the source.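 How the source made its calls: active means at least 15% inhibition at the top concentration together with an EC50 under 10 microM; inactive means the rest.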

What was measured:
[1] = system: TALL-104 lytic granule exocytosis, LAMP-1 flow cytometry; test: potency against LAMP-1 externalization in TALL-104 – TALL-104 cells, flow cytometry, CherryPick01, dose response (AID 652101); details: stimulated with 1 µM thapsigargin, 50 nM PMA;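 on inhibition: 0% = stimulated DMSO control and 100% = unstimulated control wells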
[2] = as above; details: TALL-104 lytic granule exocytosis, LAMP-1 flow cytometry, at 15.1 µM (top of the series)
[3] = stimulated with 1 µM thapsigargin, 50 nM PMA

| SMILES | EC50 [1] [µM] | inhibition [2, 3] | also measured |
| --- | --- | --- | --- |
| O=C(Cn1sc2ccccc2c1=O)Nc1ccc(F)cc1 | 5.2 |  |  |
| COc1ccccc1CNc1nc(NCc2ccc(C(C)C)cc2)c2sccc2n1 | 5.34 |  |  |
| O=c1c2ccccc2sn1-c1ccccc1F | 4.78 |  |  |
| O=C1C=CC(=O)N1N(c1ccccc1)c1ccccc1 | 5.02 |  |  |
| CCCCCCSc1cccc(-c2nc3ccccn3c2NCc2ccccc2)c1 | 7.71 |  |  |
| CCOC(=O)c1c(NC(=O)COc2ccccc2OCC)sc2c1CC(C)(C)NC2(C)C | 1.2 |  |  |
| CN1CCN(Cc2nc3ccccc3c(=O)n2Cc2nc(-c3ccc([N+](=O)[O-])cc3)cs2)CC1 | 6.16 |  |  |
| N#Cc1c(Nc2ccccc2Cl)s[nH]c1=O | 3.82 |  |  |
| Cc1ccc(Nc2nc(NCc3ccco3)c3ccccc3n2)cc1 | 4.7 |  |  |
| O=S(=O)(Nc1cc(Sc2ncn[nH]2)c(O)c2ccccc12)c1ccccc1 | 2.91 |  |  |
| CCCCC[C@@H](C)N1C[C@@H](COCc2ccccc2)Oc2cc(N3CC[C@@H](N(C)C)C3)ccc2S1(=O)=O | 4.57 |  |  |
| CCN(CC)CCCNc1ccc(-c2nnc(-c3ccc(OCC(C)C)cc3)o2)cn1 | 2.35 |  |  |
| N#Cc1ccc(NC(=O)Nc2ccc(Oc3ccc(NC(=O)Nc4ccc(C#N)cc4)cc3)cc2)cc1 |  | 33.8% (inactive) |  |
| COc1cc(-c2coc3c(C(=O)NCc4ccc(OC)c(OC)c4)cccc23)ccc1O |  | 104% (inactive) |  |
| Brc1ccccc1C1Nc2cccc3cccc(c23)N1 |  | -2.38% (inactive) |  |
| O=C(COC(=O)[C@H](Cc1c[nH]c2ccccc12)NC(=O)c1ccc(Cl)cc1)Nc1ccc2c(c1)OCO2 |  | 108% (inactive) |  |
| CN(C)CCCNC(=S)NCC(c1ccc(Cl)cc1Cl)c1c[nH]c2ccccc12 (stereo not drawn) |  | 92.7% (inactive) |  |
| COC(=O)c1c(NC(=O)c2ccc(C(=O)c3ccccc3)cc2)sc2c1CC(C)(C)NC2(C)C |  | 90.2% (inactive) |  |
| CC(=O)Nc1cc(-c2ccccc2F)cn2c(-c3ccccc3)cnc12 |  | 106% (inactive) |  |

| SMILES | EC50 [1] [µM] | inhibition [2, 3] | also measured |
| --- | --- | --- | --- |
| CN(c1ccccc1)S(=O)(=O)c1cccc(C(=O)NCCc2c[nH]c3ccccc23)c1 |  | 42.1% (inactive) |  |
| COc1ccc2nc3cc(Cl)ccc3c(Nc3ccc(O)c(CN4CCN(C)CC4)c3)c2c1 |  | 66.6% (inactive) |  |
| C=CCNc1nc(NCc2ccc(N(C)C)cc2)c2sc(-c3ccccc3)cc2n1 |  | -13.9% (inactive) |  |
| c1ccc(CCNc2ccnc3cc4ccccc4cc23)cc1 |  | 90.2% (inactive) |  |
| CCCCN(CCCC)c1nc(-c2ccncc2)nc2ccccc12 |  | 85.6% (inactive) |  |
| COC(=O)c1ccc(NCc2c(O)ccc(O)c2Br)cc1Cl |  | 72.6% (inactive) |  |
| CN1CCN(c2ccc(NC(=O)c3ccc(-c4ccc(Cl)cc4)o3)cc2)CC1 |  | 97.9% (inactive) |  |
| COC(=O)c1ccc(CCc2cc(O)c(Br)cc2O)cc1 |  | 108% (inactive) |  |
| Cc1ccc(C(=O)N/C(=C\c2ccc(-c3ccc(Br)cc3)o2)C(=O)NCCCN(C)C)cc1 |  | -10.6% (inactive) |  |
| COC(=O)c1ccc(NC(=O)CSc2nc3ccc(N4C(=O)C5C6C=CC(C6)C5C4=O)cc3s2)cc1 (stereo not drawn) |  |  | inhibition [2]: 92.5% (inactive) |
| O=C(Nc1nc(-c2ccccc2)cs1)c1ccc2c(=O)n3c(nc2c1)CCCCC3 |  | 74.2% (inactive) |  |
| COc1ccc2[nH]c3c(N4CCc5ccccc5C4)ncnc3c2c1 |  | 89.2% (inactive) |  |
| CCOC(=O)c1nnc(-c2ccccc2)nc1Sc1ccccc1Cl |  | 66.7% (inactive) |  |
| CCCNC(=O)Cn1sc2nc(C)cc(C)c2c1=O |  | 97.3% (inactive) |  |
| COC(=O)[C@]12CCCCC=C1N(Cc1cccc3ccccc13)C(=O)[C@H](CC(=O)NCc1ccc(OC)c(OC)c1)C2 |  | 108% (inactive) |  |
| CCOc1ccc(C(=O)CCN2CCCCCC2)cc1 |  | 91.4% (inactive) |  |
| CCOC(=O)c1ccc(NC(=O)c2ccc(C)c(S(=O)(=O)N3CCOCC3)c2)cc1 |  | 102% (inactive) |  |
| O=[N+]([O-])c1ccc2nc(/C=C/c3ccc(Cl)cc3)[nH]c2c1 |  | 98.6% (inactive) |  |
| CN1CCN(CCCNC(=O)c2ccc(/C=C3\Sc4ccccc4N(Cc4ccc(F)cc4)C3=O)cc2)CC1 |  | 89.7% (inactive) |  |
